# From US11684614B2, “Formulations of hydroxypyridonate actinide/lanthanide decorporation agents” (priority 2017, dated 2023)
# Several values for one entry are separate records, joined by “and”; a condition that tells them apart may be missing. Equal entries are not always repeated.
# Assay: Repeated-treatment efficacy for removing an intravenous dose of 238Pu (excretion, tissue retention, clinical observations), female and male arms;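 for % Recovered Dose ART: abdominal tissue remainder incl GI tract reproductive organs spleen bladder and fat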
# Format: in vivo, Swiss-Webster mice
# Conditions: listed as 3,4,3-LI(1,2-HOPO); for % Recovered Dose Kidney / % Recovered Dose Liver / % Recovered Dose SKEL / % Recovered Dose SOFT / % Recovered Dose Total Feces / % Recovered Dose ART / % Recovered Dose Combined Body / % Recovered Dose Combined Excreta / % Recovered Dose Total Urine / % Recovered Dose GI Tract / % Recovered Dose Soft Tissue / % Recovered Dose Total Bone: male animals
# Procedure: The objective of this study was to characterize the efficacy of 3,4,3-L1(1,2-HOPO) at enhancing elimination from an internal plutonium burden in female and male Swiss-Webster mice administered a soluble citrate complex of ^238Pu and treated multiple times, starting at 24 hours after the exposure. Efficacy was evaluated by comparing the tissue contents, urinary and fecal excretions of ^238Pu in treated animals versus untreated animals.
# The medical countermeasure 3,4,3-L1(1,2-HOPO) was administered parenterally (ip) or orally (po) via consecutive injections or gavages (six daily or twelve twice daily) starting at 24 hours post contamination at the following four selected doses: 30 μmol/kg ip, 150 μmol/kg po, 300 μmol/kg po, and 600 μmol/kg po (equivalent to respective approximate human doses range of […], using the accepted conversion system of mouse doses into human equivalent doses—HED—based on body surface area). Oral doses also included the permeability enhancer selected during formulation development work.
# • Challenge isotope: ^238Pu • Challenge dose: 25 nCi (i.e., approximately 0.8 μCi/kg) • Route of contamination: Intravenous (iv) tail-vein • Route of treatment: Intraperitoneal Injection (ip) or Oral (po) • Frequency of treatment: Multiple (once- or twice-daily for 6 days) doses, starting 24 hr postcontamination • Treatment dose calculation: Dose calculations (mg/kg or μmol/kg) for the decorporation agent were based on the individual body weight measured after contamination. • Study Duration: 11 days, in-life
# c. […] Test article and control dose formulations were prepared within 1 day of dose administration, by weighing out the appropriate amount of test article, dispersing in vehicle. For ip solutions, the test article was used alone, while for oral suspensions, a mixture of test article and excipient (90:10, w:w) was used. The pH was adjusted to 7.0-7.4 for ip administration and 5.0-5.5 for oral administration with sterile NaOH. Dose formulations were prepared at room temperature and filter-sterilized. • Storage: 2-8° C.; refrigerated; protected from light. • Characterization: The concentration of each test article formulation was verified by high-performance liquid chromatography-mass spectrometry. • Test Article Handling: Test, reference, and control article formulations were handled with the use of eye protection, gloves, and a protective laboratory coat. • Correct Dose Assurance: The test article was weighed with calibrated balances. The administration of each dose formulation was properly documented, and the amount administered to each animal recorded.
# e. Experimental Procedures (In-Life Evaluations and Euthanasia) • Contamination: Single administration by intravenous (iv) tail-vein injection (0.2 mL injection volume) under isoflurane anesthesia. Three standard 0.2 mL injections were performed into polyethylene bottles and pre-loaded with aliquots of concentrated nitric acid on each injection day. Six female and six male mice were culled for necropsy 1 hr post-contamination and were used as standards. A11 standards were processed and counted together with the final samples to allow verification of the contamination dose. • Dose Administration: Single administration by intraperitoneal injection (ip) or oral gavage (po) under isoflurane anesthesia. • Mortality/Morbidity: Assessed at least once daily. • Clinical Observations: Recorded once daily (4 hr post-dose on day of treatment), or more often as clinical signs warranted. […]
# [1] = Day-11 necropsy, animal group I
# [2] = Day-11 necropsy, animal group L
# [3] = Day-11 necropsy, animal group M
# [4] = male arm table, Day 11 necropsy, animal group I
# [5] = male arm table, Day 11 necropsy, animal group L
# [6] = male arm table, Day 11 necropsy, animal group M
smiles,measurement,setting,value
"O=C(NCCCN(CCCCN(CCCNC(=O)c1cccc(=O)n1O)C(=O)c1cccc(=O)n1O)C(=O)c1cccc(=O)n1O)c1cccc(=O)n1O [3,4,3-L1(1,2-HOPO)]",% Recovered Dose Kidney,"Day-7 necropsy, animal group C",0.22% and 0.15% and 0.21% and 0.17%
same,% Recovered Dose Liver,"Day-7 necropsy, animal group C",15.72% and 12.80% and 16.24% and 16.85%
same,% Recovered Dose SKEL,"Day-7 necropsy, animal group C",24.75% and 21.49% and 23.68% and 17.13%
same,% Recovered Dose SOFT,"Day-7 necropsy, animal group C",2.28% and 2.12% and 3.24% and 2.82%
same,% Recovered Dose Total Feces,"Day-7 necropsy, animal group C",34.40% and 32.67% and 50.44% and 35.35%
same,% Recovered Dose ART,"Day-7 necropsy, animal group E",1.02% and 1.34% and 1.21% and 1.33%
same,% Recovered Dose Combined Body,"Day-7 necropsy, animal group E",30.49% and 40.14% and 34.97% and 37.95%
same,% Recovered Dose Combined Excreta,"Day-7 necropsy, animal group E",69.51% and 59.86% and 65.03% and 62.05%
same,% Recovered Dose Kidney,"Day-7 necropsy, animal group E",0.14% and 0.21% and 0.13% and 0.20%
same,% Recovered Dose Liver,"Day-7 necropsy, animal group E",9.72% and 15.67% and 11.76% and 13.58%
same,% Recovered Dose SKEL,"Day-7 necropsy, animal group E",17.72% and 20.95% and 20.71% and 20.84%
same,% Recovered Dose SOFT,"Day-7 necropsy, animal group E",1.89% and 1.96% and 1.16% and 2.00%
same,% Recovered Dose Total Feces,"Day-7 necropsy, animal group E",40.90% and 40.04% and 39.60% and 39.91%
same,% Recovered Dose Total Urine,"Day-7 necropsy, animal group E",28.61% and 19.82% and 25.43% and 22.13%
same,% Recovered Dose ART,"Day-7 necropsy, animal group F",1.03% and 1.92% and 2.25% and 1.33%
same,% Recovered Dose Combined Body,"Day-7 necropsy, animal group F",30.37% and 39.36% and 36.59% and 31.04%
same,% Recovered Dose Combined Excreta,"Day-7 necropsy, animal group F",69.63% and 60.64% and 63.41% and 68.96%
same,% Recovered Dose Kidney,"Day-7 necropsy, animal group F",0.17% and 0.21% and 0.42%
same,% Recovered Dose Liver,"Day-7 necropsy, animal group F",7.14% and 17.14% and 15.20% and 10.27%
same,% Recovered Dose SKEL,"Day-7 necropsy, animal group F",20.00% and 18.02% and 16.63% and 16.58%
same,% Recovered Dose SOFT,"Day-7 necropsy, animal group F",2.03% and 2.08% and 2.10% and 2.66%
same,% Recovered Dose Total Feces,"Day-7 necropsy, animal group F",42.75% and 36.05% and 44.44% and 38.86%
same,% Recovered Dose Total Urine,"Day-7 necropsy, animal group F",26.88% and 24.59% and 18.97% and 30.09%
same,% Recovered Dose Combined Body,[1],15.90% and 20.53% and 19.46% and 22.16% and 16.51% and 22.02% and 21.03% and 23.25%
same,% Recovered Dose Combined Excreta,[1],84.10% and 79.47% and 80.54% and 77.84% and 83.49% and 77.98% and 78.97% and 76.75%
same,% Recovered Dose GI Tract,[1],0.43% and 0.47% and 0.44% and 0.49% and 0.64% and 0.58% and 0.71%
same,% Recovered Dose Kidney,[1],0.08% and 0.11% and 0.10% and 0.14% and 0.13% and 0.16%
same,% Recovered Dose Liver,[1],2.60% and 1.91% and 2.22% and 2.29% and 3.02% and 2.09% and 2.92% and 2.34%
same,% Recovered Dose Soft Tissue,[1],1.04% and 0.98% and 0.83% and 1.42% and 1.37% and 1.22% and 1.20%
same,% Recovered Dose Total Bone,[1],11.74% and 17.07% and 15.87% and 17.81% and 11.38% and 18.21% and 16.06% and 19.05%
same,% Recovered Dose Total Feces,[1],54.04% and 60.47% and 51.78% and 38.48% and 49.18% and 43.78% and 44.59% and 43.58%
same,% Recovered Dose Combined Body,[2],38.48% and 43.87% and 28.88% and 28.44% and 32.53% and 32.57% and 26.76% and 36.08%
same,% Recovered Dose Combined Excreta,[2],61.52% and 56.13% and 71.12% and 71.56% and 64.47% and 67.43% and 73.24% and 63.92%
same,% Recovered Dose GI Tract,[2],0.99% and 1.04% and 1.13% and 1.03% and 1.21% and 0.97% and 0.90% and 0.93%
same,% Recovered Dose Kidney,[2],0.10% and 0.15% and 0.19% and 0.14%
same,% Recovered Dose Soft Tissue,[2],2.91% and 2.09% and 2.06% and 2.29% and 2.57% and 2.02% and 1.97% and 1.69%
same,% Recovered Dose Total Bone,[2],25.77% and 24.60% and 16.37% and 19.43% and 22.08% and 18.56% and 15.85% and 25.23%
same,% Recovered Dose Total Feces,[2],41.70% and 35.40% and 43.87% and 46.74% and 38.04% and 37.30% and 46.07% and 33.53%
same,% Recovered Dose Total Urine,[2],19.82% and 20.73% and 27.24% and 24.82% and 26.43% and 30.12% and 27.17% and 30.39%
same,% Recovered Dose Combined Body,[3],20.04% and 21.39% and 28.64% and 34.45% and 33.00% and 30.60% and 25.58% and 27.62%
same,% Recovered Dose Combined Excreta,[3],79.96% and 78.61% and 71.36% and 65.55% and 67.00% and 69.40% and 74.42% and 72.38%
same,% Recovered Dose GI Tract,[3],0.61% and 0.50% and 0.89% and 0.48% and 0.99% and 1.00% and 0.73% and 0.76%
same,% Recovered Dose Kidney,[3],0.08% and 0.17% and 0.28% and 0.16% and 0.25% and 0.24% and 0.20% and 0.13%
same,% Recovered Dose Liver,[3],3.86% and 3.49% and 8.37% and 6.17% and 12.45% and 9.96% and 3.83% and 6.08%
same,% Recovered Dose Soft Tissue,[3],1.50% and 1.55% and 1.52% and 2.24% and 2.53% and 2.16% and 2.01% and 1.95%
same,% Recovered Dose Total Bone,[3],13.99% and 15.68% and 17.58% and 25.41% and 16.78% and 17.24% and 18.80% and 18.71%
same,% Recovered Dose Total Feces,[3],53.86% and 46.68% and 46.45% and 35.88% and 40.81% and 59.45% and 36.72% and 39.43%
same,"% Recovered Dose Urine per Day, Day 2",[4],3.96% and 5.51% and 4.41% and 4.63% and 4.05% and 5.30% and 3.86% and 5.05%
same,"% Recovered Dose Urine per Day, Day 3",[4],1.65% and 1.23% and 3.48% and 2.00% and 1.41% and 1.46% and 1.93%
same,"% Recovered Dose Urine per Day, Day 4",[4],0.77% and 0.85% and 0.98% and 1.08% and 0.65% and 0.92% and 0.89% and 0.93%
same,"% Recovered Dose Urine per Day, Day 5",[4],0.94% and 0.87% and 0.59% and 0.63% and 0.79% and 0.76% and 0.28% and 1.05%
same,"% Recovered Dose Urine per Day, Day 6",[4],0.65% and 0.41% and 0.44% and 0.32% and 0.35% and 0.48% and 0.51% and 0.55%
same,"% Recovered Dose Urine per Day, Day 7",[4],0.87% and 1.16% and 0.64% and 0.59% and 0.75% and 0.99% and 1.27%
same,"% Recovered Dose Urine per Day, Day 8",[4],0.32% and 0.70% and 0.71% and 0.52% and 0.77% and 0.79% and 0.51%
same,"% Recovered Dose Urine per Day, Day 9",[4],0.20% and 0.51% and 0.73% and 0.48% and 0.39% and 0.60% and 0.63%
same,"% Recovered Dose Urine per Day, Day 10",[4],0.58% and 0.74% and 0.92% and 0.42% and 0.40% and 0.38% and 0.41%
same,"% Recovered Dose Urine per Day, Day 11",[4],0.39% and 0.44% and 0.55% and 0.31% and 0.43% and 0.00% and 0.71%
same,"% Recovered Dose Urine per Day, Day 1",[5],12.59% and 16.03% and 21.48% and 17.40% and 21.11% and 22.45% and 21.35% and 20.51%
same,"% Recovered Dose Urine per Day, Day 2",[5],2.90% and 1.60% and 1.70% and 2.41% and 1.15% and 2.95% and 2.14% and 3.00%
same,"% Recovered Dose Urine per Day, Day 3",[5],1.04% and 0.84% and 1.21% and 0.62% and 1.08% and 1.06% and 0.54% and 1.49%
same,"% Recovered Dose Urine per Day, Day 4",[5],0.50% and 0.38% and 0.59% and 0.77% and 0.45% and 0.81% and 0.67% and 1.28%
same,"% Recovered Dose Urine per Day, Day 5",[5],0.64% and 0.28% and 0.60% and 0.52% and 0.67% and 0.50% and 0.69%
same,"% Recovered Dose Urine per Day, Day 6",[5],0.60% and 0.06% and 0.37% and 0.49% and 0.33% and 0.48% and 0.43%
same,"% Recovered Dose Urine per Day, Day 7",[5],0.61% and 0.22% and 0.72% and 1.23% and 0.46% and 0.44% and 0.51% and 0.75%
same,"% Recovered Dose Urine per Day, Day 8",[5],0.30% and 0.16% and 0.05% and 0.55% and 0.60% and 0.62%
same,"% Recovered Dose Urine per Day, Day 9",[5],0.21% and 0.30% and 0.20% and 0.22% and 0.55% and 0.27% and 0.25% and 0.67%
same,"% Recovered Dose Urine per Day, Day 10",[5],0.24% and 0.45% and 0.12% and 0.20% and 0.21% and 0.30% and 0.34% and 0.63%
same,"% Recovered Dose Urine per Day, Day 11",[5],0.20% and 0.41% and 0.40% and 0.14% and 0.18% and 0.34% and 0.31%
same,"% Recovered Dose Urine per Day, Day 2",[6],2.27% and 2.99% and 2.82% and 2.73% and 2.07% and 4.97% and 3.05%
same,"% Recovered Dose Urine per Day, Day 3",[6],0.81% and 1.49% and 1.40% and 1.64% and 1.14% and 1.43% and 1.07% and 1.00%
same,"% Recovered Dose Urine per Day, Day 4",[6],0.47% and 0.64% and 0.77% and 0.68% and 0.62% and 0.31% and 0.58% and 0.72%
